From the CheMixHub viscosity set

Experiment: xn = mol fraction of the nth substance listed

OCCOCCO + COCCO
viscosity [mPa·s], 101 kPa
Settings	293.15 K	298.15 K	303.15 K
x2 = 0.063	32.91	25.61	18.57
x2 = 0.1046	29.55	23.08	16.7
x2 = 0.1548	25.97	20.37	14.71
x2 = 0.1955	23.41	18.4	13.26
x2 = 0.2599	19.9	15.69	11.28
x2 = 0.3032	17.82	14.1	10.11
x2 = 0.3425	16.13	12.78	9.154
x2 = 0.3978	14.02	11.13	7.954
x2 = 0.4463	12.38	9.856	7.03
x2 = 0.4981	10.82	8.633	6.143
x2 = 0.5488	9.459	7.565	5.383
x2 = 0.5957	8.321	6.686	4.755
x2 = 0.6523	7.085	5.718	4.079
x2 = 0.6987	6.176	5.003	3.59
x2 = 0.7511	5.269	4.232	3.094
x2 = 0.8021	4.393	3.612	2.67
x2 = 0.8546	3.602	2.998	2.276
x2 = 0.8964	3.013	2.551	1.995
x2 = 0.9423	2.414	2.084	1.714

[Cl-].[Cl-].[Cl-].[Cl-].[Ge+4] + COc1ccccc1
viscosity [mPa·s], 101 kPa
Settings	x2 = 0.2185	x2 = 0.3554	x2 = 0.4923	x2 = 0.6922	x2 = 0.8481
293.15 K	0.65	0.688	0.734	0.836	0.963
303.15 K	0.591	0.621	0.654	0.732	0.836
313.15 K	0.535	0.555	0.598	0.654	0.731

O=Cc1ccccc1 + CS(C)=O
viscosity [mPa·s], 101.33 kPa
Settings	x2 = 0.1	x2 = 0.2	x2 = 0.3	x2 = 0.4	x2 = 0.5	x2 = 0.6	x2 = 0.7	x2 = 0.8	x2 = 0.9
298.15 K	1.443	1.51	1.562	1.62	1.679	1.739	1.801	1.864	1.938
308.15 K	1.22	1.266	1.314	1.362	1.411	1.461	1.51	1.56	1.609
318.15 K	1.066	1.101	1.135	1.17	1.207	1.243	1.28	1.317	1.354

OCCOCCO + CS(C)=O
308.15 K, 101 kPa
Settings	viscosity [mPa·s]
x2 = 0.0978	16.69
x2 = 0.1794	15.85
x2 = 0.2569	14.94
x2 = 0.3945	13.49
x2 = 0.4797	12.36
x2 = 0.5804	10.83
x2 = 0.6748	8.995
x2 = 0.7945	6.227
x2 = 0.9146	3.442

[Cl-].[Cl-].[Cl-].[Cl-].[Ge+4] + CSC
293.15 K, 101 kPa
Settings	viscosity [mPa·s]
x2 = 0.203	0.526
x2 = 0.3575	0.483
x2 = 0.4983	0.433
x2 = 0.6857	0.379
x2 = 0.8554	0.328

CCCC[N+](CCCC)(CCCC)CCCC.[Cl-] + CSCC[C@H](N)C(=O)O
Settings	viscosity [mPa·s]
323.15 K, 101 kPa, x1 = 0.9	529
